Reference: publication PMC6325219, “Preclinical Characterization of NVR 3-778, a First-in-Class Capsid Assembly Modulator against Hepatitis B Virus” (Antimicrobial Agents and Chemotherapy, 2018)
Like-named read-outs stand apart in the source and are kept apart here.

How the values were obtained:
HBV [1] = experiment: Antiviral studies using HepG2.2.15 cells (HBV DNA and HBV RNA readouts); type: cell-based, hepatitis B virus (GT D); settings: for Effect on secreted HBV RNA, single drug: 6 days, increasing concentrations; for EC50: Hepatitis B virus
Method: In combination studies, cells were treated with compounds either alone or in combination after combining the compounds in a checkerboard format. In studies examining the effect of human serum, serially diluted NVR 3-778 was added into cell culture medium containing 0% to 40% human serum (BioreclamationIVT). Cells were incubated with the compounds for 3 days, after which the medium was removed, fresh medium containing the compounds was added to the cells, and the cells were incubated for another 3 days prior to harvesting of the supernatants or cells for antiviral assays. To quantify intracellular encapsidated rcDNA or encapsidated pgRNA, cells were first solubilized using lysis buffer containing 1% NP-40 and 10 mM CaCl2. The cytoplasmic fraction was then treated with S7 nuclease (6 units) to remove nonencapsidated nucleic acids, after which the S7 nuclease was inactivated by the addition of EDTA (0.5 M). […] The levels of HBV DNA were determined by a bDNA assay as described above (Affymetrix). Supernatants or cell lysates containing HBV RNA were treated with proteinase K (2.5 µg) at 50°C for 40 min, transferred to a capture plate containing HBV RNA probe sets, and hybridized overnight at 55°C. Captured HBV RNA was measured by the addition of a chemiluminescent substrate using a QuantiGene assay (Affymetrix). […] At day 6, the CellTiter-Glo reagent was added to the cells and viability was determined according to the manufacturer’s protocol (Promega). Luminescence signals were measured at 0.2 s using a Victor X4 multimode plate reader (PerkinElmer).

[2] = test system: HBV core protein variant I105L; experiment: Transient-transfection antiviral study in HepG2 cells, core variant I105L; type: cell-based, hepatitis B virus; settings: for EC50 FC, I105L: ratio of mean EC50 for core variant over wild-type HBV
Method: (§1) Cells were cotransfected with the HBV plasmids (100 ng/well) and a Gaussia expression plasmid (10 ng/well) (Thermo Scientific) using the Lipofectamine LTX Plus transfection reagent (Life Technologies). Transfection mixtures were removed after overnight incubation, and cells were treated with serially diluted NVR 3-778 at a final dimethyl sulfoxide (DMSO) concentration of 0.5%. After 3 days of incubation with the compound, the supernatants were collected and secreted Gaussia luciferase was measured using a Gaussia Flash luciferase assay kit (Thermo Scientific). […] Samples were diluted into lysis buffer (Affymetrix) containing 2.5 µg proteinase K (Affymetrix) at 50°C for 40 min. Intracellular encapsidated HBV DNA was denatured for 30 min at 25°C in 0.2 M NaOH (Sigma) and incubated with HBV DNA probes designed to hybridize to the minus-strand HBV DNA (Affymetrix). The denatured DNA was subsequently detected using a QuantiGene assay kit, according to the branched DNA (bDNA) assay recommended by the manufacturer (Affymetrix).

[3] = test system: HBV core protein variant I105V; experiment: Transient-transfection antiviral study in HepG2 cells, core variant I105V; type: cell-based, hepatitis B virus; settings: for EC50 FC, I105V: ratio of mean EC50 for core variant over wild-type HBV
Method: as §1

HBV [4] = experiment: Combination study of NVR 3-778 with nucleos(t)ide analogs in HepG2.2.15 cells (MacSynergy II, CalcuSyn); type: cell-based, hepatitis B virus (GT D)
Method: The effect of the compound combinations on cell viability was evaluated by measuring the intracellular ATP levels of HepG2.2.15 cells.
HepG2.2.15 cells were seeded in 96-well plates at a density of 40,000 cells/well and incubated with serially diluted compounds at a final DMSO concentration of 0.5%. In combination studies, cells were treated with compounds either alone or in combination after combining the compounds in a checkerboard format. In studies examining the effect of human serum, serially diluted NVR 3-778 was added into cell culture medium containing 0% to 40% human serum (BioreclamationIVT). Cells were incubated with the compounds for 3 days, after which the medium was removed, fresh medium containing the compounds was added to the cells, and the cells were incubated for another 3 days prior to harvesting of the supernatants or cells for antiviral assays. To quantify intracellular encapsidated rcDNA or encapsidated pgRNA, cells were first solubilized using lysis buffer containing 1% NP-40 and 10 mM CaCl2. The cytoplasmic fraction was then treated with S7 nuclease (6 units) to remove nonencapsidated nucleic acids, after which the S7 nuclease was inactivated by the addition of EDTA (0.5 M). To quantify extracellular HBV DNA or HBV RNA, supernatants from HepG2.2.15 cells were treated with Turbo DNase at 37°C for 60 min, followed by inactivation of DNase at 75°C for 15 min. The levels of HBV DNA were determined by a bDNA assay as described above (Affymetrix). Supernatants or cell lysates containing HBV RNA were treated with proteinase K (2.5 µg) at 50°C for 40 min, transferred to a capture plate containing HBV RNA probe sets, and hybridized overnight at 55°C. Captured HBV RNA was measured by the addition of a chemiluminescent substrate using a QuantiGene assay (Affymetrix). To determine the cytotoxicity effect of the compounds on proliferating cells, HepG2.2.15 cells were seeded in 96-well plates at a density of 10,000 cells/well and incubated with serially diluted compounds at a final DMSO concentration of 0.5% for 3 days, after which the medium was removed, fresh medium containing the compounds was added to the cells, and the cells were incubated for another 3 days. At day 6, the CellTiter-Glo reagent was added to the cells and viability was determined according to the manufacturer’s protocol (Promega). Luminescence signals were measured at 0.2 s using a Victor X4 multimode plate reader (PerkinElmer).
To determine percent inhibition, the mean background signal from wells containing only culture medium was subtracted from the signal for all other samples, and percent inhibition at each compound concentration was calculated by normalization to the signals for HepG2.2.15 cells treated with 0.5% DMSO. […] Both CalcuSyn and MacSynergy II (Ann Arbor, MI) software were used to evaluate the effect of compound combinations ([27]). After data analysis at the 95% confidence level, values of synergy or antagonism of <25 µM^2% were defined as insignificant, those between 25 and 50 µM^2% were defined as minor, those between 50 and 100 µM^2% were defined as moderate, and those of >100 µM^2% were defined as strong.

HBV [5] = experiment: De novo infection study using PHH; type: cell-based; settings: Hepatitis B virus
Method: Cryopreserved PHH (Life Technologies) were seeded at 40,000 cells/well 1 day before infection. The HBV inoculum, concentrated from the supernatants of HepG2.2.15 cells, was prepared at 200 genome equivalents/cell in PHH medium (DMEM containing 10% FBS and a supplement cocktail containing HEPES, L-proline, insulin epidermal growth factor, dexamethasone, and ascorbic acid-2-phosphate, as previously described) with 2% DMSO and 4% polyethylene glycol (PEG) 8000 (Sigma). Compounds were serially diluted in DMSO at 50-fold strength and added to PHH medium containing the HBV inoculum, prior to infecting the PHH. After overnight incubation, the infection mixtures were removed and the cells were replenished with PHH medium containing freshly diluted compounds. On day 5 and day 8 postinfection, the media containing the compounds were removed and the cells were replenished with PHH medium containing freshly diluted compounds. Supernatants and cells were harvested for antiviral and viability assays on day 11 postinfection. HBV DNA, HBsAg, and HBeAg were determined from the supernatants of infected PHH using bDNA assays (Affymetrix) and HBsAg or HBeAg chemiluminescence immunoassay kits (Autobio), as recommended by the manufacturers. Intracellular total HBV RNA mRNA and host mRNA levels were monitored by using the QuantiGene assays (Affymetrix) and probe sets that hybridized to the X region, which is common to all HBV transcripts, and the host β-actin mRNA, respectively.

[6] = in combination with NVR 3-778, HepG2.2.15 cells, 6 days, MacSynergy II, 95% confidence
[7] = 264 h, PHH from three donors, compound added with inoculum, 11 days, read-out: EC50, HBV DNA
[8] = 264 h, PHH from three donors, compound added with inoculum, 11 days, read-out: EC50, HBeAg
[9] = 264 h, PHH from three donors, compound added with inoculum, 11 days, read-out: EC50, HBsAg
[10] = 264 h, PHH from three donors, compound added with inoculum, 11 days, read-out: EC50, intracellular HBV RNA
[11] = 264 h, PHH from three donors, compound added with inoculum, 11 days, read-out: EC90, HBV DNA
[12] = 264 h, PHH from three donors, compound added with inoculum, 11 days, read-out: EC90, HBeAg
[13] = 264 h, PHH from three donors, compound added with inoculum, 11 days, read-out: EC90, HBsAg
[14] = 264 h, PHH from three donors, compound added with inoculum, 11 days, read-out: EC90, intracellular HBV RNA
[15] = HepG2.2.15 cells, 6 days, LMV 0.15-1.5 μM

Row | SMILES | Effect on secreted HBV RNA, single drug (HBV [1]; HepG2.2.15 cells) | EC50 FC, I105L [2] [fold] | EC50 FC, I105V [3] [fold] | EC50 (HBV [5]; [7]) [µM] | EC50 (HBV [5]; [8]) [µM] | EC50 (HBV [5]; [9]) [µM] | EC50 (HBV [5]; [10]) [µM] | EC90 (HBV [5]; [11]) [µM] | EC90 (HBV [5]; [12]) [µM] | EC90 (HBV [5]; [13]) [µM] | EC90 (HBV [5]; [14]) [µM] | other results
1 | Nc1ccn([C@@H]2CS[C@H](CO)O2)c(=O)n1 [LMV, lamivudine, reference compound] | increased the production of secreted HBV RNA | 1.3 | 0.84 | 0.016 ± 0.01 | > 30 | > 30 | > 30 | 0.066 ± 0.01 | > 30 | > 30 | > 30 | EC50 (HBV [1]; HepG2.2.15, values used as starting concentrations of the combination study, read-out: EC50 against HBV DNA replication in HepG2.2.15 cells): 0.15 µM; Antagonism (HBV [4]; [6]): −14.3 μM^2%; Synergy (HBV [4]; [6]): 5.1 μM^2%; CalcuSyn-predicted effect (HBV [4]; in combination with NVR 3-778, based on overall CI): Additive
2 | O=C(Nc1cc(F)c(F)c(F)c1)c1ccc(F)c(S(=O)(=O)N2CCC(O)CC2)c1 [NVR 3-778] | inhibited the production of secreted HBV RNA | 1.5 | 1.8 | 0.81 ± 0.18 | 4.5 ± 0.82 | 4.8 ± 0.98 | 3.7 ± 0.22 | 5.4 ± 2 | 8.9 ± 1.2 | 10.2 ± 3 | 11.6 ± 2.7 | EC50 (HBV [1]; HepG2.2.15 cells, QuantiGene assay, read-out: EC50, intracellular encapsidated pgRNA (mean)): 0.44 µM; EC50 (HBV [1]; HepG2.2.15 cells, branched DNA assay, read-out: EC50, intracellular encapsidated rcDNA (mean)): 0.34 µM; EC50 (HBV [1]; HepG2.2.15 cells, supernatant, read-out: EC50, secreted HBV DNA (mean)): 0.4 µM; EC50 (HBV [1]; HepG2.2.15 cells, supernatant, read-out: EC50, secreted HBV RNA (mean)): 0.6 µM; EC50 ([2]; Hepatitis B virus, HepG2, read-out: EC50, core variant I105L): 0.34 ± 0.13 µM; EC50 ([3]; Hepatitis B virus, HepG2, read-out: EC50, core variant I105V): 0.41 ± 0.11 µM; Effect of adding 0.4 μM NVR 3-778 to LMV on secreted HBV RNA (HBV [4]; [15]): partially reversed the increase in the level of secreted HBV RNA induced by LMV; Effect of adding 2 μM and 4 μM NVR 3-778 to LMV on secreted HBV RNA (HBV [4]; [15]): completely reverted the LMV effect; EC50 (HBV [5]; PHH, de novo infection, range over HBsAg, HBeAg, HBV RNA, read-out: EC50 values against the production of HBV antigens and intracellular HBV RNA): 3.7 to 4.8 µM
